Assay results from patent US20260274892A1, “MACROCYCLIC BROAD SPECTRUM ANTIBIOTICS” (RQx Pharmaceuticals, Inc., priority 2017, published 2026).

Assays:
[1] = system: Escherichia coli ATCC 25922; test: Minimum inhibitory concentration (MIC), CLSI broth micro-dilution, E. coli; format: cell-based; conditions: Escherichia coli, ATCC25922, 22 h
In short: (§1)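 Antibacterial potency is measured as MIC by the CLSI broth dilution method. Bacteria at OD600 0.0005 in Tween-80-supplemented cation-adjusted Mueller Hinton broth face ten twofold compound dilutions for 22 h at 35° C.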

[2] = system: Methicillin Resistant Staphylococcus aureus strain USA 200; test: Minimum inhibitory concentration (MIC), CLSI broth micro-dilution, S. aureus; format: cell-based; conditions: Staphylococcus aureus, MRSA / USA200, MRSA USA 200, cation adjusted Mueller Hinton Broth + 0.002% Tween-80, 35° C., 22 hours
In short: as §1

[3] = Table 6, cation adjusted Mueller Hinton Broth + 0.002% Tween-80, 35° C.
[4] = Table 8, cation adjusted Mueller Hinton Broth + 0.002% Tween-80, 35° C.

Compound	MIC [1, 3] [µM]	MIC ([2]; Table 6) [µM]	MIC [1, 4] [µM]	MIC ([2]; Table 8) [µM]
CCC(C)(C)c1ccc(-c2ncc(C(=O)N[C@@H](CCN)C(=O)N(C)[C@@H]3C(=O)N[C@@H](C)C(=O)N[C@H](C(=O)NCC#N)Cc4ccc(O)c(c4)-c4cc3ccc4OCCN)c(C)n2)cc1 (racemic) [Compound 535, rac-(8S,11S,14S)-18-(2-aminoethoxy)-N-(cyanomethyl)-3-hydroxy-11-methyl-14-[methyl-[rac-(2S)-4-amino-2-[[2-[4-(1,1-dimethylpropyl)phenyl]-4-methyl-pyrimidine-5-carbonyl]amino]butanoyl]amino]-10,13-dioxo-9,12-diazatricyclo[13.3.1.12,6]icosa-1(18),2(20),3,5,15(19),16-hexaene-8-carboxamide]	0.23	0.029	–	–
CCCCCOc1ccc(-c2nc(C)c(C(=O)N[C@@H](CCN)C(=O)N(C)[C@@H]3C(=O)N[C@@H](C)C(=O)N[C@H](C(=O)NCC#N)Cc4ccc(OCCN)c(c4)-c4cc3ccc4O)c(C)n2)cc1 (racemic) [Compound 536, rac-(8S,11S,14S)-3-(2-aminoethoxy)-N-(cyanomethyl)-18-hydroxy-11-methyl-14-[methyl-[rac-(2S)-4-amino-2-[[4,6-dimethyl-2-(4-pentoxyphenyl)pyrimidine-5-carbonyl]amino]butanoyl]amino]-10,13-dioxo-9,12-diazatricyclo[13.3.1.12,6]icosa-1(18),2(20),3,5,15(19),16-hexaene-8-carboxamide]	0.13	0.016	–	–
Cc1nc(-c2ccc(OCCC(C)(C)C)cc2)nc(C)c1C(=O)N[C@@H](CCN)C(=O)N(C)[C@@H]1C(=O)N[C@@H](C)C(=O)N[C@H](C(=O)NCC#N)Cc2ccc(O)c(c2)-c2cc1ccc2OCCN (racemic) [Compound 539, rac-(8S,11S,14S)-18-(2-aminoethoxy)-N-(cyanomethyl)-3-hydroxy-11-methyl-14-[methyl-[rac-(2S)-4-amino-2-[[2-[4-(3,3-dimethylbutoxy)phenyl]-4,6-dimethyl-pyrimidine-5-carbonyl]amino]butanoyl]amino]-10,13-dioxo-9,12-diazatricyclo[13.3.1.12,6]icosa-1(18),2(20),3,5,15(19),16-hexaene-8-carboxamide]	0.15	0.023	–	–
Cc1nc(-c2ccc(O)cc2)nc(C)c1C(=O)N[C@@H](CCN)C(=O)N(C)[C@@H]1C(=O)N[C@@H](C)C(=O)N[C@H](C(=O)NCC#N)Cc2ccc(OCCN)c(c2)-c2cc1ccc2OCCN (racemic) [Compound 542, rac-(8S,11S,14S)-3,18-bis(2-aminoethoxy)-N-(cyanomethyl)-11-methyl-14-[methyl-[rac-(2S)-4-amino-2-[[2-(4-hydroxyphenyl)-4,6-dimethyl-pyrimidine-5-carbonyl]amino]butanoyl]amino]-10,13-dioxo-9,12-diazatricyclo[13.3.1.12,6]icosa-1(18),2(20),3,5,15(19),16-hexaene-8-carboxamide]	4.4	0.55	–	–
Cc1nc(-c2ccc(C3(C)CC3)cc2)nc(C)c1C(=O)N[C@@H](CCN)C(=O)N(C)[C@@H]1C(=O)N[C@@H](C)C(=O)N[C@H](C(=O)NCC#N)Cc2ccc(O)c(c2)-c2cc1ccc2OCCN (racemic) [Compound 543, rac-(8S,11S,14S)-18-(2-aminoethoxy)-N-(cyanomethyl)-3-hydroxy-11-methyl-14-[methyl-[rac-(2S)-4-amino-2-[[4,6-dimethyl-2-[4-(1-methylcyclopropyl)phenyl]pyrimidine-5-carbonyl]amino]butanoyl]amino]-10,13-dioxo-9,12-diazatricyclo[13.3.1.12,6]icosa-1(18),2(20),3,5,15(19),16-hexaene-8-carboxamide]	0.35	0.063	–	–
Cc1nc(-c2ccc(C(C)(C)C)cc2)nc(N)c1C(=O)N[C@@H](CCN)C(=O)N(C)[C@@H]1C(=O)N[C@@H](C)C(=O)N[C@H](C(=O)NCC#N)Cc2ccc(O)c(c2)-c2cc1ccc2OCCN (racemic) [Compound 548, rac-(8S,11S,14S)-18-(2-aminoethoxy)-N-(cyanomethyl)-3-hydroxy-11-methyl-14-[methyl-[rac-(2S)-4-amino-2-[[4-amino-2-(4-tert-butylphenyl)-6-methyl-pyrimidine-5-carbonyl]amino]butanoyl]amino]-10,13-dioxo-9,12-diazatricyclo[13.3.1.12,6]icosa-1(18),2(20),3,5,15(19),16-hexaene-8-carboxamide]	0.46	0.047	–	–
Cc1nc(-c2ccc(C(C)(C)C)cc2)ncc1C(=O)N[C@@H](CCN)C(=O)N(C)[C@@H]1C(=O)N[C@@H](C)C(=O)N[C@H](C(=O)NCC#N)Cc2ccc(OCCN)c(c2)-c2cc1ccc2O (racemic) [Compound 549, rac-(8S,11S,14S)-3-(2-aminoethoxy)-N-(cyanomethyl)-18-hydroxy-11-methyl-14-[methyl-[rac-(2S)-4-amino-2-[[2-(4-tert-butylphenyl)-4-methyl-pyrimidine-5-carbonyl]amino]butanoyl]amino]-10,13-dioxo-9,12-diazatricyclo[13.3.1.12,6]icosa-1(18),2(20),3,5,15(19),16-hexaene-8-carboxamide]	0.21	0.035	–	–
Cc1nc(-c2ccc(OC(C)C)cc2)nc(C)c1C(=O)N[C@@H](CCN)C(=O)N(C)[C@@H]1C(=O)N[C@@H](C)C(=O)N[C@H](C(=O)NCC#N)Cc2ccc(O)c(c2)-c2cc1ccc2OCCN (racemic) [Compound 552, rac-(8S,11S,14S)-18-(2-aminoethoxy)-N-(cyanomethyl)-3-hydroxy-11-methyl-14-[methyl-[rac-(2S)-4-amino-2-[[2-(4-isopropoxyphenyl)-4,6-dimethyl-pyrimidine-5-carbonyl]amino]butanoyl]amino]-10,13-dioxo-9,12-diazatricyclo[13.3.1.12,6]icosa-1(18),2(20),3,5,15(19),16-hexaene-8-carboxamide]	1.4	0.25	–	–
Cc1nc(-c2ccc(C(C)(C)C)cc2)nc(C)c1C(=O)N[C@@H](CCN)C(=O)N(C)[C@@H]1C(=O)N[C@@H](C)C(=O)N[C@H](C(=O)NCC#N)Cc2ccc(OCCN)c(c2)-c2cc1ccc2O (racemic) [Compound 553, rac-(8S,11S,14S)-3-(2-aminoethoxy)-N-(cyanomethyl)-18-hydroxy-11-methyl-14-[methyl-[rac-(2S)-4-amino-2-[[2-(4-tert-butylphenyl)-4,6-dimethyl-pyrimidine-5-carbonyl]amino]butanoyl]amino]-10,13-dioxo-9,12-diazatricyclo[13.3.1.12,6]icosa-1(18),2(20),3,5,15(19),16-hexaene-8-carboxamide]	0.21	0.055	–	–
COc1ccc2cc1-c1cc(ccc1OCCN)C[C@@H](C(=O)NCC#N)NC(=O)[C@H](C)NC(=O)[C@H]2N(C)C(=O)[C@H](CCN)NC(=O)c1cnc(-c2ccc(C(C)(C)C)cc2)nc1C (racemic) [Compound 558, rac-(8S,11S,14S)-3-(2-aminoethoxy)-N-(cyanomethyl)-18-methoxy-11-methyl-14-[methyl-[rac-(2S)-4-amino-2-[[2-(4-tert-butylphenyl)-4-methyl-pyrimidine-5-carbonyl]amino]butanoyl]amino]-10,13-dioxo-9,12-diazatricyclo[13.3.1.12,6]icosa-1(18),2(20),3,5,15(19),16-hexaene-8-carboxamide]	0.73	0.046	–	–
CCCCCOc1ccc(-c2nc(C)c(C(=O)N[C@@H](CCN)C(=O)N(C)[C@@H]3C(=O)N[C@@H](C)C(=O)N[C@H](C(=O)O)Cc4ccc(OCCN)c(c4)-c4cc3ccc4OCCN)c(C)n2)cc1 (racemic) [Compound 638, rac-(8S,11S,14S)-3,18-bis(2-aminoethoxy)-11-methyl-14-[methyl-[rac-(2S)-4-amino-2-[[4,6-dimethyl-2-(4-pentoxyphenyl)pyrimidine-5-carbonyl]amino]butanoyl]amino]-10,13-dioxo-9,12-diazatricyclo [13.3.1.12,6]icosa-1(18),2(20),3,5,15(19), 16-hexaene-8-carboxylic acid]	–	–	0.22	0.19
CCC1(Oc2ccc(-c3nc(C)c(C(=O)N[C@@H](CCN)C(=O)N(C)[C@@H]4C(=O)N[C@@H](C)C(=O)N[C@H](C(=O)O)Cc5ccc(OCCN)c(c5)-c5cc4ccc5OCCN)c(C)n3)cc2)CC1 (racemic) [Compound 639, rac-(8S,11S,14S)-3,18-bis(2-aminoethoxy)-11-methyl-14-[methyl-[rac-(2S)-4-amino-2-[[2-[4-(1-ethylcyclopropoxy)phenyl]-4,6-dimethyl-pyrimidine-5-carbonyl]amino]butanoyl]amino]-10,13-dioxo-9,12-diazatricyclo [13.3.1.12,6]icosa-1(18),2(20),3,5,15(19), 16-hexaene-8-carboxylic acid]	–	–	0.38	0.75
CCCCCCOc1ccc(-c2nc(C)c(C(=O)N[C@@H](CCN)C(=O)N(C)[C@@H]3C(=O)N[C@@H](C)C(=O)N[C@H](C(=O)O)Cc4ccc(OCCN)c(c4)-c4cc3ccc4OCCN)c(C)n2)cc1 (racemic) [Compound 641, rac-(8S,11S,14S)-3,18-bis(2-aminoethoxy)-11-methyl-14-[methyl-[rac-(2S)-4-amino-2-[[2-(4-hexoxyphenyl)-4,6-dimethyl-pyrimidine-5-carbonyl]amino]butanoyl]amino]-10,13-dioxo-9,12-diazatricyclo [13.3.1.12,6]icosa-1(18),2(20),3,5,15(19), 16-hexaene-8-carboxylic acid]	–	–	0.094	0.047
